# Source: patent US20250296938A1, “Compounds that Interact with the Ras Superfamily for the Treatment of Cancers, Inflammatory Diseases, Rasopathies, and Fibrotic Disease” (SHY Therapeutics, LLC, priority 2018, published 2025)
# System: KRas G12C mutant
# Assay: Ras GTP binding domain inhibition assay (Cy3-GTP/Cy5-GTP competition)
# Design: species or system human
# Conditions: 20 μM; with SOS (Table 7A)
# Method in brief: (§1)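 Ni-plate immobilised His-Ras, overnight 4 °C; cpd 20 μM (or dilution series for IC50), 1% DMSO, 3 h RT; optional His-Sos […] last hour; Cy3- or Cy5-GTP 100 nM, 45 min RT; 3× wash; bound fluorescence read.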
row,SMILES,KRas G12C mutant + SOS: % inh.
1,Cn1ccc(-c2sc3nc(-c4nccn4C)nc(N[C@H]4C[C@@H](O)C4)c3c2-c2ccccc2)n1 [drawing 908],A (1-25% inhibition)
2,CO[C@H]1C[C@@H](Nc2nc(-c3ncc[nH]3)nc3sc(-c4ccn(C)n4)c(-c4ccccc4)c23)C1 [drawing 910],B (26-50% inhibition)
3,CO[C@H]1CC[C@@H](Nc2nc(-c3ncc[nH]3)nc3sc(-c4ccn(C)n4)c(-c4ccccc4)c23)C1 [drawing 911],C (51-75% inhibition)
4,CO[C@H]1CC[C@@H](Nc2nc(-c3nccn3C)nc3sc(-c4ccn(C(C)C)n4)c(-c4ccccc4)c23)C1 [drawing 912],D (76-100% inhibition)
5,COc1nc(-c2ccccn2)nc2c(-c3ccccn3)csc12 [drawing 913],A (1-25% inhibition)
6,CO[C@H]1C[C@@H](Nc2nc(-c3nccn3C)nc3sc(-c4ccn(C)n4)c(C)c23)C1 [drawing 914],C (51-75% inhibition)
7,CO[C@H]1CC[C@@H](Nc2nc(-c3nccn3C)nc3sc(-c4ccn(C)n4)c(C)c23)C1 [drawing 915],D (76-100% inhibition)
8,Cc1c(-c2ccn(C)n2)sc2nc(-c3nccn3C)nc(NCCCS(C)(=O)=O)c12 [drawing 916],C (51-75% inhibition)

# Same assay, conditions: 20 μM; without SOS (Table 7A)
row,SMILES,KRas G12C mutant: % inh.
1,Cn1ccc(-c2sc3nc(-c4nccn4C)nc(N[C@H]4C[C@@H](O)C4)c3c2-c2ccccc2)n1 [drawing 908],A (1-25% inhibition)
2,CO[C@H]1C[C@@H](Nc2nc(-c3ncc[nH]3)nc3sc(-c4ccn(C)n4)c(-c4ccccc4)c23)C1 [drawing 910],B (26-50% inhibition)
3,CO[C@H]1CC[C@@H](Nc2nc(-c3ncc[nH]3)nc3sc(-c4ccn(C)n4)c(-c4ccccc4)c23)C1 [drawing 911],C (51-75% inhibition)
4,CO[C@H]1CC[C@@H](Nc2nc(-c3nccn3C)nc3sc(-c4ccn(C(C)C)n4)c(-c4ccccc4)c23)C1 [drawing 912],C (51-75% inhibition)
5,COc1nc(-c2ccccn2)nc2c(-c3ccccn3)csc12 [drawing 913],A (1-25% inhibition)
6,CO[C@H]1C[C@@H](Nc2nc(-c3nccn3C)nc3sc(-c4ccn(C)n4)c(C)c23)C1 [drawing 914],C (51-75% inhibition)
7,CO[C@H]1CC[C@@H](Nc2nc(-c3nccn3C)nc3sc(-c4ccn(C)n4)c(C)c23)C1 [drawing 915],C (51-75% inhibition)
8,Cc1c(-c2ccn(C)n2)sc2nc(-c3nccn3C)nc(NCCCS(C)(=O)=O)c12 [drawing 916],C (51-75% inhibition)

# System: KRas Q61H mutant
# Assay: as above
# Design: species or system human
# Conditions: 20 μM; with SOS (Table 7A)
# Method in brief: as §1
row,SMILES,KRas Q61H mutant + SOS: % inh.
1,Cn1ccc(-c2sc3nc(-c4nccn4C)nc(N[C@H]4C[C@@H](O)C4)c3c2-c2ccccc2)n1 [drawing 908],0 (0% inhibition)
2,CO[C@H]1C[C@@H](Nc2nc(-c3ncc[nH]3)nc3sc(-c4ccn(C)n4)c(-c4ccccc4)c23)C1 [drawing 910],B (26-50% inhibition)
3,CO[C@H]1CC[C@@H](Nc2nc(-c3ncc[nH]3)nc3sc(-c4ccn(C)n4)c(-c4ccccc4)c23)C1 [drawing 911],C (51-75% inhibition)
4,CO[C@H]1CC[C@@H](Nc2nc(-c3nccn3C)nc3sc(-c4ccn(C(C)C)n4)c(-c4ccccc4)c23)C1 [drawing 912],D (76-100% inhibition)
5,COc1nc(-c2ccccn2)nc2c(-c3ccccn3)csc12 [drawing 913],A (1-25% inhibition)
6,CO[C@H]1C[C@@H](Nc2nc(-c3nccn3C)nc3sc(-c4ccn(C)n4)c(C)c23)C1 [drawing 914],C (51-75% inhibition)
7,CO[C@H]1CC[C@@H](Nc2nc(-c3nccn3C)nc3sc(-c4ccn(C)n4)c(C)c23)C1 [drawing 915],D (76-100% inhibition)
8,Cc1c(-c2ccn(C)n2)sc2nc(-c3nccn3C)nc(NCCCS(C)(=O)=O)c12 [drawing 916],C (51-75% inhibition)

# Same assay, conditions: 20 μM; without SOS (Table 7A)
row,SMILES,KRas Q61H mutant: % inh.
1,Cn1ccc(-c2sc3nc(-c4nccn4C)nc(N[C@H]4C[C@@H](O)C4)c3c2-c2ccccc2)n1 [drawing 908],A (1-25% inhibition)
2,CO[C@H]1C[C@@H](Nc2nc(-c3ncc[nH]3)nc3sc(-c4ccn(C)n4)c(-c4ccccc4)c23)C1 [drawing 910],C (51-75% inhibition)
3,CO[C@H]1CC[C@@H](Nc2nc(-c3ncc[nH]3)nc3sc(-c4ccn(C)n4)c(-c4ccccc4)c23)C1 [drawing 911],B (26-50% inhibition)
4,CO[C@H]1CC[C@@H](Nc2nc(-c3nccn3C)nc3sc(-c4ccn(C(C)C)n4)c(-c4ccccc4)c23)C1 [drawing 912],D (76-100% inhibition)
5,COc1nc(-c2ccccn2)nc2c(-c3ccccn3)csc12 [drawing 913],B (26-50% inhibition)
6,CO[C@H]1C[C@@H](Nc2nc(-c3nccn3C)nc3sc(-c4ccn(C)n4)c(C)c23)C1 [drawing 914],C (51-75% inhibition)
7,CO[C@H]1CC[C@@H](Nc2nc(-c3nccn3C)nc3sc(-c4ccn(C)n4)c(C)c23)C1 [drawing 915],C (51-75% inhibition)
8,Cc1c(-c2ccn(C)n2)sc2nc(-c3nccn3C)nc(NCCCS(C)(=O)=O)c12 [drawing 916],D (76-100% inhibition)

# System: KRas wild type
# Assay: as above
# Design: species or system human
# Conditions: 20 μM; with SOS (Table 7A)
# Method in brief: as §1
row,SMILES,KRas wild type + SOS: % inh.
1,Cn1ccc(-c2sc3nc(-c4nccn4C)nc(N[C@H]4C[C@@H](O)C4)c3c2-c2ccccc2)n1 [drawing 908],0 (0% inhibition)
2,CO[C@H]1C[C@@H](Nc2nc(-c3ncc[nH]3)nc3sc(-c4ccn(C)n4)c(-c4ccccc4)c23)C1 [drawing 910],A (1-25% inhibition)
3,CO[C@H]1CC[C@@H](Nc2nc(-c3ncc[nH]3)nc3sc(-c4ccn(C)n4)c(-c4ccccc4)c23)C1 [drawing 911],C (51-75% inhibition)
4,CO[C@H]1CC[C@@H](Nc2nc(-c3nccn3C)nc3sc(-c4ccn(C(C)C)n4)c(-c4ccccc4)c23)C1 [drawing 912],D (76-100% inhibition)
5,COc1nc(-c2ccccn2)nc2c(-c3ccccn3)csc12 [drawing 913],A (1-25% inhibition)
6,CO[C@H]1C[C@@H](Nc2nc(-c3nccn3C)nc3sc(-c4ccn(C)n4)c(C)c23)C1 [drawing 914],C (51-75% inhibition)
7,CO[C@H]1CC[C@@H](Nc2nc(-c3nccn3C)nc3sc(-c4ccn(C)n4)c(C)c23)C1 [drawing 915],D (76-100% inhibition)
8,Cc1c(-c2ccn(C)n2)sc2nc(-c3nccn3C)nc(NCCCS(C)(=O)=O)c12 [drawing 916],C (51-75% inhibition)

# Same assay, conditions: 20 μM; without SOS (Table 7A)
row,SMILES,KRas wild type % inh.
1,Cn1ccc(-c2sc3nc(-c4nccn4C)nc(N[C@H]4C[C@@H](O)C4)c3c2-c2ccccc2)n1 [drawing 908],A (1-25% inhibition)
2,CO[C@H]1C[C@@H](Nc2nc(-c3ncc[nH]3)nc3sc(-c4ccn(C)n4)c(-c4ccccc4)c23)C1 [drawing 910],B (26-50% inhibition)
3,CO[C@H]1CC[C@@H](Nc2nc(-c3ncc[nH]3)nc3sc(-c4ccn(C)n4)c(-c4ccccc4)c23)C1 [drawing 911],C (51-75% inhibition)
4,CO[C@H]1CC[C@@H](Nc2nc(-c3nccn3C)nc3sc(-c4ccn(C(C)C)n4)c(-c4ccccc4)c23)C1 [drawing 912],D (76-100% inhibition)
5,COc1nc(-c2ccccn2)nc2c(-c3ccccn3)csc12 [drawing 913],B (26-50% inhibition)
6,CO[C@H]1C[C@@H](Nc2nc(-c3nccn3C)nc3sc(-c4ccn(C)n4)c(C)c23)C1 [drawing 914],C (51-75% inhibition)
7,CO[C@H]1CC[C@@H](Nc2nc(-c3nccn3C)nc3sc(-c4ccn(C)n4)c(C)c23)C1 [drawing 915],C (51-75% inhibition)
8,Cc1c(-c2ccn(C)n2)sc2nc(-c3nccn3C)nc(NCCCS(C)(=O)=O)c12 [drawing 916],C (51-75% inhibition)

# Target: T1, KRas G12D mutant (Homo sapiens, UniProt P01116, G12D)
# T1 construct: fused on or other part: His tag, used for capture on nickel-coated plates
# Assay: as above
# Conditions: 20 μM; with SOS (Table 7A); read-out: KRas G12D mutant + SOS: % inh.
# Method in brief: as §1
row,SMILES,inhibition at 20 µM [%]
1,Cn1ccc(-c2sc3nc(-c4nccn4C)nc(N[C@H]4C[C@@H](O)C4)c3c2-c2ccccc2)n1 [drawing 908],0
2,CO[C@H]1C[C@@H](Nc2nc(-c3ncc[nH]3)nc3sc(-c4ccn(C)n4)c(-c4ccccc4)c23)C1 [drawing 910],26 to 50
3,CO[C@H]1CC[C@@H](Nc2nc(-c3ncc[nH]3)nc3sc(-c4ccn(C)n4)c(-c4ccccc4)c23)C1 [drawing 911],51 to 75
4,CO[C@H]1CC[C@@H](Nc2nc(-c3nccn3C)nc3sc(-c4ccn(C(C)C)n4)c(-c4ccccc4)c23)C1 [drawing 912],51 to 75
5,COc1nc(-c2ccccn2)nc2c(-c3ccccn3)csc12 [drawing 913],1 to 25
6,CO[C@H]1C[C@@H](Nc2nc(-c3nccn3C)nc3sc(-c4ccn(C)n4)c(C)c23)C1 [drawing 914],51 to 75
7,CO[C@H]1CC[C@@H](Nc2nc(-c3nccn3C)nc3sc(-c4ccn(C)n4)c(C)c23)C1 [drawing 915],51 to 75
8,Cc1c(-c2ccn(C)n2)sc2nc(-c3nccn3C)nc(NCCCS(C)(=O)=O)c12 [drawing 916],76 to 100

# Same assay, conditions: 20 μM; without SOS (Table 7A); read-out: KRas G12D mutant: % inh.
row,SMILES,inhibition at 20 µM [%]
1,Cn1ccc(-c2sc3nc(-c4nccn4C)nc(N[C@H]4C[C@@H](O)C4)c3c2-c2ccccc2)n1 [drawing 908],0
2,CO[C@H]1C[C@@H](Nc2nc(-c3ncc[nH]3)nc3sc(-c4ccn(C)n4)c(-c4ccccc4)c23)C1 [drawing 910],26 to 50
3,CO[C@H]1CC[C@@H](Nc2nc(-c3ncc[nH]3)nc3sc(-c4ccn(C)n4)c(-c4ccccc4)c23)C1 [drawing 911],26 to 50
4,CO[C@H]1CC[C@@H](Nc2nc(-c3nccn3C)nc3sc(-c4ccn(C(C)C)n4)c(-c4ccccc4)c23)C1 [drawing 912],51 to 75
5,COc1nc(-c2ccccn2)nc2c(-c3ccccn3)csc12 [drawing 913],26 to 50
6,CO[C@H]1C[C@@H](Nc2nc(-c3nccn3C)nc3sc(-c4ccn(C)n4)c(C)c23)C1 [drawing 914],51 to 75
7,CO[C@H]1CC[C@@H](Nc2nc(-c3nccn3C)nc3sc(-c4ccn(C)n4)c(C)c23)C1 [drawing 915],26 to 50
8,Cc1c(-c2ccn(C)n2)sc2nc(-c3nccn3C)nc(NCCCS(C)(=O)=O)c12 [drawing 916],76 to 100
